Reference: a melting point compilation (Tetko et al.; mined from patent text by program, amines drawn as free bases though some values may be those of a salt)

SMILES	melting point
CC1CC(=O)NN=C1c1ccc(-n2ccc(C=O)c2)cc1 (stereo unspecified)	191 to 192 °C
CCOc1ccc(S(=O)(=O)N(CC(=O)NN=C2C(=O)Nc3ccccc32)c2ccc(C)cc2)cc1	130 to 131 °C
Clc1cc2cc[nH]c2c2cccnc12	248 to 250 °C
OCc1ccc(-c2ccc(-c3cn([C@H]4CN5CCC4CC5)nn3)cc2)cc1	250 °C
COc1cc2c(cc1OC)C(=O)CS[C@@H](C(=O)O)C2	223 to 224 °C
CCNC(=O)Nc1ccc(-c2sc3c(c2CN(C)CCOCCOCC)c(=O)n(-c2ccccc2)c(=O)n3Cc2c(F)cccc2F)cc1	230 to 233 °C
CC(=O)N(C(C)=O)c1c(C#N)cnn1-c1ccc(Cl)c(Cl)c1Cl	163 to 165 °C
COc1cc(O)c(C=O)cc1C(C)(C)C	75 to 78 °C
CC(C)(C)C(=O)C(CC(=O)c1ccc(Cl)cc1)n1cncn1 (stereo unspecified)	116 to 119 °C
O=C(O)c1cc(OCCCOc2ccc(-c3ccccc3)cc2)cc(OCCCOc2ccc(-c3ccccc3)cc2)c1	186 to 187 °C
Cc1cc(Cl)c2c(C#N)cn(-c3ccc(C(C)C)cc3Br)c2n1	123 °C
O=c1ccc(S(=O)(=O)c2oc3ccc(Cl)cc3c2O)n[nH]1	> 240 °C
COc1nc(NN)c2c(OC)c(OC)cc(Cl)c2n1	166 to 168 °C
CC(C)(C)c1cc(OCc2ccccc2C(=O)O)cc(C(C)(C)C)c1	173 to 174 °C
CCNC(=O)Nc1cccc(Oc2nnc([C@@H](C)NS(=O)(=O)c3ccc(Cl)c(Cl)c3)n2CC)c1	118 to 120 °C
Cc1cc(C(C)(C)C)c(O)c(S(=O)(=O)Nc2ccc(C#N)cc2Cl)c1	101 to 105 °C
CN(C)C(=O)c1nc(-c2cnccn2)nc2c1c1ccc(Cl)cc1n2C	272 to 273 °C

Now from value to molecule:

melting point	SMILES
99 to 105 °C	COc1cc(CC(=O)O)ccc1CNC(=O)C1Cc2ccccc2N1S(=O)(=O)c1ccc(-c2cccc(C(F)(F)F)c2)cc1 (stereo unspecified)
179 to 180 °C	O=C(OCn1c(=O)[nH]cc(F)c1=O)c1cccnc1
200 to 202 °C	O=C(O)c1c(-c2cccc(OCC3CC3)c2)c2ccccc2n1Cc1ccc(F)cc1
189 to 190 °C	O=C(OCc1ccc(C(F)(F)F)cc1)N1CCC2(CC1)Cn1cc([N+](=O)[O-])nc1O2
116 to 117 °C	Cc1oc(-c2ccccc2)nc1COc1ccc(CON=C(CCC(=O)O)c2ccccn2)cc1
126 to 127 °C	Cn1c(CO)ccc1S(=O)(=O)N1CCC(CCO)(Sc2cc(C(C)(C)C)c(O)c(C(C)(C)C)c2)CC1
299 °C	Cn1cc(-c2cc(-c3cnc4[nH]ccc4c3)ccn2)n(-c2ccc(C(C)(C)C(N)=O)cc2)c1=O
147 to 148 °C	Cc1ncn(-c2cc(F)ccc2CNC(=O)c2nc3n(c(=O)c2OCc2ccccc2)CCN3c2ccccc2)n1
182 to 184 °C	FC(F)(F)c1ccc(CN2CC3(COc4cc5c(cc43)CCO5)c3c(Br)cccc32)o1 (stereo unspecified)
168 to 170 °C	O=C(c1ccc(F)cc1)C1CCN(C(=O)c2ccc([N+](=O)[O-])cc2)CC1
128 °C	FC(F)(F)c1ccc(NC2CCNCC2)nc1
79 to 80 °C	Nc1cc(CCC(=O)NC23CC4CC(CC(C4)C2)C3)ccc1O
183 to 184 °C	O=C1C(=O)c2ccccc2C2=C1SCC1(CCN(CC(O)COc3ccc4cc(Br)ccc4c3)CC1)O2 (stereo unspecified)
> 250 °C	NC(=O)c1ccc2c(O)cncc2c1
196 to 198 °C	NC(=O)c1c(Cl)c(-c2ccccc2)n2c1CN(C(=O)Oc1ccccc1)CC2
167 to 170 °C	Nc1ccc2c(c1Br)C(=O)C1(CC1)O2
36 to 37 °C	CCC(C)(C)c1ccc(OCCCCNC(=O)CS(=O)(=O)c2ccc([N+](=O)[O-])cc2)c(C(C)(C)CC)c1
95 to 100 °C	Cc1ccc(CC(=O)c2sccc2S(=O)(=O)Nc2onc(C)c2C)cc1
142 °C	CC(C(=O)Cl)c1ccc2c(c1)CCc1ccccc1C2=O (stereo unspecified)
